This is an account of results in US20130267516A1, “SUBSTITUTED CYCLOPENTYL-AZINES AS CASR-ACTIVE COMPOUNDS” (LEO PHARMA A/S, priority 2010, published 2013).

As usually defined, the EC50 is the concentration at which the effect is half-maximal. A low value points to a more potent agent.

The structures appear in SMILES notation.

The nature of series [1]: Clearance in human liver microsomes. As to conditions: hepatic extraction ratio; 0.5 μM compound, 0.5 mg/mL microsomes, 1 mM NADPH, 30 min. In kind it is in vitro ADME. On the procedure:
Test compound concentration is 0.5 μM, microsome concentration is 0.5 mg/mL and NADPH concentration is 1 mM in the incubation. The described method is performed by the liquid handling system Tecan RSP and is based on a 96-well format.
Control incubations with test compound without NADPH and test compound without microsomes are conducted to investigate non-CYP mediated metabolism and stability in phosphate buffer at 37° C., respectively.
The human liver microsomal suspension in phosphate buffer is mixed with NADPH. The mixture is pre-heated (7 min) to 37° C. Test compound is added, and the mixture is incubated for 30 minutes. Incubations are run in duplicate. Samples are withdrawn at predetermined stop times and mixed with methanol containing internal standard (IS) to terminate all enzyme activity and precipitate proteins. A control without NADPH (to detect problems such as nonspecific protein binding, heat instability or non-CYP mediated metabolism) and a control without microsomes (for assessing compound stability in the absence of any active enzymes) are tested.
The percentage of organic solvent in the incubations is less than 1%. Careful inspections of reagents are performed prior to the start of any experiment to ensure all reagents are in solution.
The 96-well plates are centrifuged. Test compound depletion, using a compound specific LC/MS/MS method, is determined.
The logarithm of the peak area ratios of test compound to internal standard (IS) versus incubation time is plotted in a graph.
The rate constant (k) (min^−1) of test compound depletion is calculated from the linear part of the curve and the half-time (t1/2) in minutes can be calculated from the rate constant (Eq. 2).
Intrinsic clearance (Clint) (mL/min/mg protein) is calculated from: […]
where c is the microsomal protein concentration in mg/mL.
Intrinsic clearance is the maximum ability of the liver to extract a drug in the absence of blood flow restrictions.
Conversion to apparent clearance (Clapp) (mL/min/kg) is done by Eq. 4:
Clapp=Clint×a×b/d (Eq. 4)
where a, b and d are the scaling factors for normalizing Clint to human body weight.
The following human scaling factors are used:
a: 45 (microsomal protein/liver weight (mg/g)) b: 1500 (liver weight (g)) d: 70 (body weight (kg))
Hepatic clearance (Clh) (mL/min/kg) based on the well-stirred model is described as followed:
Clh=(Clapp·Q)/(Clapp+Q) (Eq. 5)
where Q is the liver blood flow in mL/min/kg (20 in humans).
Dividing hepatic clearance with liver blood flow, the hepatic extraction ratio (%) can be calculated:
Apparent clearance below approximately 10 mL/min/kg human body weight (corresponding to extraction ratio of approx. 33%) is considered as low clearance (high metabolic stability). Apparent intrinsic clearance above approximately 60 mL/min/kg human body weight (corresponding to extraction ratio of approx. 75%) is considered as high clearance (low metabolic stability).

For another series, the target named is T1, human CaSR (Homo sapiens, UniProt P41180).
T1 construct: The ORF coding for the human CaSR (genebank: NM_000388)
T1 sequence (P41180 20-1078): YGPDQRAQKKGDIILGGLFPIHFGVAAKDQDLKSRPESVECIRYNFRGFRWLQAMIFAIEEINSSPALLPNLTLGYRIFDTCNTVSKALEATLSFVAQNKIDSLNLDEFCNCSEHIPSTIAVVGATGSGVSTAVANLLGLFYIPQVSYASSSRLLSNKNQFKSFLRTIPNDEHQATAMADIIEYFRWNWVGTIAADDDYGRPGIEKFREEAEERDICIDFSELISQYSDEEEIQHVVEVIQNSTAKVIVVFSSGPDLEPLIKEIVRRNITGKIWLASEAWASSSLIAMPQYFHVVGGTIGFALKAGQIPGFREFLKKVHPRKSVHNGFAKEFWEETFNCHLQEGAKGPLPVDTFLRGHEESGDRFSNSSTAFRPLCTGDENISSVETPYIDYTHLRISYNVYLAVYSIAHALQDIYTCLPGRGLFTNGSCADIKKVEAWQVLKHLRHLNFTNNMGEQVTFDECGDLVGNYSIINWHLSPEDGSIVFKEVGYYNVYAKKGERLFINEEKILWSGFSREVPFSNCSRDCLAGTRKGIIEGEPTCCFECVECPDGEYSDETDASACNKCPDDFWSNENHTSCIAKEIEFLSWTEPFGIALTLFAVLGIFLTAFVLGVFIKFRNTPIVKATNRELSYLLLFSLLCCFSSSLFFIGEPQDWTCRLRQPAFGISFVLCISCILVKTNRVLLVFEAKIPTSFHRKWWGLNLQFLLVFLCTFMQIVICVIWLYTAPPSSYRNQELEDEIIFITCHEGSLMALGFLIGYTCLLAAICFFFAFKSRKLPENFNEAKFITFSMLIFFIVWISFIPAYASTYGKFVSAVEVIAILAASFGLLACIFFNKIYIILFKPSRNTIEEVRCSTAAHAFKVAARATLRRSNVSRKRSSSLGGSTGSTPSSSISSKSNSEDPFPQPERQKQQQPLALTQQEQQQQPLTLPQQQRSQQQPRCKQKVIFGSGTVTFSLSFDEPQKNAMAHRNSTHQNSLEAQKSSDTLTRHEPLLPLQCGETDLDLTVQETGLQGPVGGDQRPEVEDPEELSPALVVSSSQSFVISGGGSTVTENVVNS
In words: Functional whole cell assay (modulation of human CaSR), IP1 accumulation in CHO-K1 cells. Format: cell-based. To be noted: CHO-K1 cells stably expressing human CaSR, final Ca2+ 1.9 mM, IP1 readout; concentration giving 50% of maximum agonistic response. An excerpt: The assay investigates a compound's functional ability to act as a biological positive modulator on the human CaSR. Activation of the receptor expressed on CHO-K1 cells is detected through the G alpha q pathway, the activation of phospholipase C and the accumulation of intracellular inositol phosphate (IP) as described earlier [Sandrine Ferry, Bruno Chatel, Robert H. Dodd, Christine Lair, Danielle Gully, Jean-Pierre Maffrand, and Martial Ruat. Effects of Divalent Cations and of a Calcimimetic on Adrenocorticotropic Hormone Release in Pituitary Tumor Cells. Biochemical and biophysical research Communications 238, 866-873 (1997)]. The human CaSR is stably expressed on a CHO-K1 cell clone, stimulated with a basal level of calcium and challenged with the tested compound. The level of IP1 is determined using the IP-One Terbium htrf kit (Cisbio, France). CHO-K1 cells not transfected with the CaSR fail to elicit an IP1 response upon calcium and/or compound stimulation.
The ORF coding for the human CaSR (genebank: NM_000388) was acquired from Invitrogen Corp, USA and subsequently cloned into the mammalian expression vector pCDA3.1.
CHO-K1 cells were transfected using Lipofectamine according to manufacturer's protocol (400.000 cells/well were seeded in a 6-well plate and transfected after 24 hours using 2 μg DNA and 5 μl lipofectamine). After another 24 hours the cells were detached, seeded and subjected to 1 mg/ml of G-418. Following 7 days growth single clones were picked, the CaSR expression evaluated using the 5C10 antibody against CaSR, the clones with the highest expression were selected and tested for functional response. The preferred clone was cultured according to standard procedures described in ATCC (American Type Culture Collection) protocols for CHO-K1 with the addition of 500 μg/ml G-418.
On the assay day, cells were thawed, harvested and resuspended to 4*10^6 cells/ml in stimulation buffer (containing: Hepes 10 mM, MgCl2 0.5 mM, KCl 4.2 mM, NaCl 146 mM, glucose 5.5 mM, LiCl 50 mM, BSA 0.5% at pH 7.4). Ten μl cell solution was pipetted into wells of a white 384-well plate (Perkin Elmer Optiplate) containing 2 μl compound diluted in assay buffer (containing: Hepes 10 mM, MgCl2 0.5 mM, KCl 4.2 mM, NaCl 146 mM, glucose 5.5 mM, LiCl 50 mM, CaCl2 11.4 mM at pH 7.4), resulting in a final Ca^2+ concentration of 1.9 mM. After compound stimulation for 1 hour at 37° C. and 15 min at room temperature, 10 ul of IP-One assay detection reagent (prepared as described by the IP-One assay kit manufacturer) was added and the plate was incubated for another 1 hour at room temperature. Finally the plate was read using a Perkin Elmer EnVision, according to the protocol supplied by the IP-One assay kit manufacturer. The FRET ratio was calculated by dividing the 665 nm emission signal with that of the 615 nm.
The molar concentration of a compound that produces 50% of the maximum agonistic response (the […] value) is calculated according to the equation “General sigmoidal curve with Hill slope, a to d” (Equation 1). This model describes a sigmoidal curve with an adjustable baseline. The equation can be used to fit curves where response is either increasing or decreasing with respect to the independent variable, X.
y=(a−d)/(1+(x/c)̂b)+d Equation 1.
x=concentration of tested compound y=response (%) a=min response as compound concentration approaches 0 d=max response as concentration of tested compound is increasing c=IC50 for the curve b=Hill coefficient or curve slope

For `C[C@@H](N[C@H]1CC[C@@H](c2ccc(NCCS(N)(=O)=O)nc2)C1)c1cccc2c1OCO2` [Compound 114, 2-[[5-[(1R,3S)-3-[[(1R)-1-(1,3-Benzodioxol-4-yl)ethyl]amino]cyclopentyl]-2-pyridyl]amino]ethanesulfonamide], in series [1], the “Clearance (% Eh) in human liver microsomes” value (shortened to “Clearance (% Eh)”) is given as “A (A: Eh < 33%)”. The compound further showed an EC50 on human CaSR of 200 to 1000 nM.
`CCOc1cccc([C@@H](C)N[C@H]2CC[C@@H](c3ccc(N4CCNC(=O)C4)nc3)C2)c1` [Compound 117, 4-[5-[(1R,3S)-3-[[(1R)-1-(3-Ethoxyphenyl)ethyl]amino]cyclopentyl]-2-pyridyl]piperazin-2-one]: the “Clearance (% Eh)” value in series [1] was “A (A: Eh < 33%)”. On human CaSR, this compound registered a concentration giving a half-maximal response (EC50) of 200 to 1000 nM.
Regarding `C[C@@H](N[C@H]1CC[C@@H](c2ccc(NCCS(N)(=O)=O)nc2)C1)c1cccc(Cl)c1` [Compound 121, 2-[[5-[(1R,3S)-3-[[(1R)-1-(3-Chlorophenyl)ethyl]amino]cyclopentyl]-2-pyridyl]amino]ethanesulfonamide], in series [1], the “Clearance (% Eh)” value is “A (A: Eh < 33%)”. The compound further showed an EC50 at human CaSR of 200 to 1000 nM.
For `COc1cc([C@@H](C)N[C@H]2CC[C@@H](c3cnc(NCCNS(C)(=O)=O)nc3)C2)ccc1F` [Compound 123, N-[2-[[5-[(1R,3S)-3-[[(1R)-1-(4-Fluoro-3-methoxy-phenyl)ethyl]amino]cyclopentyl]pyrimidin-2-yl]amino]ethyl]methanesulfonamide], in series [1], the “Clearance (% Eh)” value is reported as “A (A: Eh < 33%)”. Also, the concentration giving a half-maximal response (EC50) at human CaSR was 200 to 1000 nM.
